In brackets after ≈: the same amount, converted by molar mass. Like-named read-outs stand apart in the source and are kept apart here.
Tests used:
Pseud. aeruginosa = experiment: In vitro minimum inhibitory concentration (MIC), tube dilution test; assay type: cell-based; conditions: Pseudomonas aeruginosa, 20 h, brain-heart infusion broth, 20hour incubation at 37° C., read-out: Minimal Inhibitory Test Conens. (MIC)
Sal. gallinarum = experiment: as above; assay type: cell-based; conditions: Salmonella enterica, 20 h, brain-heart infusion broth, 20hour incubation at 37° C., read-out: Minimal Inhibitory Test Conens. (MIC)
Protocol: (§1) A. In vitro: mimimum inhibitory concentration (MIC)
(§2) The compound was tested in a standard bacteriological tube dilution test for MIC for a variety of bacteria. Stock cultures of the bacteria listed in Table 1 were grown in bacterial culture media at 37° C. overnight and diluted in culture tubes to a previously determined concentration proper for the test. The compound was added to result in final concentrations of 10, 2, 0.4 and 0.08 μg/ml. These were incubated for 18 hours at 37° C. and then observed to determine if growth of bacteria had occurred. The lowest concentration of the compound that inhibited bacterial growth in the MIC.
(§3) *brain-heart infusion broth, 20hour incubation at 37° C.

Proteus vulgaris = experiment: as above; assay type: cell-based; conditions: Proteus vulgaris (14P); brain-heart infusion broth, 20hour incubation at 37° C.; read-out: Minimal Inhibitory Test Conens. (MIC)
Protocol: as §1, §2, §3

E. coli = experiment: as above; assay type: cell-based; conditions: Escherichia coli, 20 h, brain-heart infusion broth, 20hour incubation at 37° C., read-out: Minimal Inhibitory Test Conens. (MIC)
Protocol: as §1, §2, §3

Proteus sp. = experiment: as above; assay type: cell-based; conditions: brain-heart infusion broth, 20hour incubation at 37° C., read-out: Minimal Inhibitory Test Conens. (MIC)
Protocol: as §1, §2, §3

Sal. choleraesuis = experiment: as above; assay type: cell-based; conditions: Salmonella enterica, 20 h, read-out: Minimal Inhibitory Test Conens. (MIC)
Protocol: as §1, §2, §3

Strep. pyogenes = experiment: as above; assay type: cell-based; conditions: Streptococcus pyogenes; Strep. pyogenes (10V); brain-heart infusion broth, 20hour incubation at 37° C.; read-out: Minimal Inhibitory Test Conens. (MIC)
Protocol: as §1, §2, §3

Ser. marcescens = experiment: as above; assay type: cell-based; conditions: Serratia marcescens; Ser. marcescens (22); brain-heart infusion broth, 20hour incubation at 37° C.; read-out: Minimal Inhibitory Test Conens. (MIC)
Protocol: as §1, §2, §3

Staph. aureus = experiment: as above; assay type: cell-based; conditions: Staphylococcus aureus; Staph. aureus (08F); brain-heart infusion broth, 20hour incubation at 37° C.; read-out: Minimal Inhibitory Test Conens. (MIC)
Protocol: as §1, §2, §3

Bac. subtilis = experiment: as above; assay type: cell-based; conditions: Bacillus subtilis; Bac. subtilis (07A); brain-heart infusion broth, 20hour incubation at 37° C.; read-out: Minimal Inhibitory Test Conens. (MIC)
Protocol: as §1, §2, §3

Sal. typhimurium = experiment: as above; assay type: cell-based; conditions: Salmonella enterica, 20 h, brain-heart infusion broth, 20hour incubation at 37° C., read-out: Minimal Inhibitory Test Conens. (MIC)
Protocol: as §1, §2, §3

Sal. typhi = experiment: as above; assay type: cell-based; conditions: Salmonella enterica, TYPHI, 20 h, brain-heart infusion broth, 20hour incubation at 37° C.
Protocol: as §1, §2, §3

Aero. cloacae = experiment: as above; assay type: cell-based; conditions: Enterobacter cloacae; Aero. cloacae (39A); brain-heart infusion broth, 20hour incubation at 37° C.; read-out: Minimal Inhibitory Test Conens. (MIC)
Protocol: as §1, §2, §3

Shiq. dysenteriae = experiment: as above; assay type: cell-based; conditions: 20 h, read-out: Minimal Inhibitory Test Conens. (MIC)
Protocol: as §1, §2, §3

Kleb. aerobacter = experiment: as above; assay type: cell-based; conditions: Kleb. aerobacter (20F); brain-heart infusion broth, 20hour incubation at 37° C.; read-out: Minimal Inhibitory Test Conens. (MIC)
Protocol: as §1, §2, §3

in vivo = conditions: mouse, in vivo, po; for TD50: doses given in mg./kg
Protocol: 17- to 24-hour fasted female white mice, 16-20 g. each, or rats, 70-90 g. each were dosed orally with test drug (or standard) at 0, 4, 12, 36, 108 or 324 mg./kg.
Ataxia--The mouse or rat was placed upright on the bench top facing away from the observer. Motor incoordination manifested by abnormal gait or lack of precision during purposive movements constituted ataxia.
Vertical Bar--The mouse or rat was swung by the tail with head pointing down to a 0.5" diameter (1" diameter for rats), 30.5 cm long vertical rod covered with adhesive tape. Inability to grip the rod with the front paws, sliding or failure to move after being prodded constituted vertical bar loss.
Body Temperature--The rectal temperatures of the mice and rats were taken using a KC-1 thermocouple probe.
Excitement and Irritability--Increased spontaneous motor activity, running and jumping prior to handling were recorded as excitement. Upon handling, jumping, jerking, biting and squeaking were recorded as irritability.
Anorexia--At the end of the 0.5 hour testing period, each mouse was transferred to an individual, clear, Lucite® compartment (13.3 cm×12.7 cm×12.7 cm) with a 0.64 cm×0.64 cm wire mesh floor. Inside each compartment there was a section of a black Lucite® bar [13 cm×1.2 cm×1.2 cm) with ten spot depressions (0.8 cm diameter) each containing 0.05 ml. of 50% sweetened condensed milk. 30 Minutes later the number of milk spots consumed was counted. 5 Mice per drug dose can drink a maximum of 50 spots (2.5 ml. of milk). 15 or fewer spots consumed by 5 mice constituted anorexia.

[1] = read-out: Minimal Inhibitory Test Conens. (MIC), Sal. typhi (02A)
[2] = read-out: Minimal Inhibitory Test Conens. (MIC), Sal. typhi (02B)
[3] = ED50 Anoroxia, 15 or fewer milk spots consumed by 5 mice
[4] = ED50 Hypertherm., rectal temperature
[5] = ED50 Hypotherm., rectal temperature
[6] = ED50 Vert. Bar, vertical bar loss

## O=C(O)c1cn(C(F)F)c2cc3c(cc2c1=O)OCO3 [DFMQ, 1-difluoromethyl-6,7-methylenedioxy-1,4-dihydro-4-oxo-3-quinolinecarboxylic acid]
Pseud. aeruginosa; Pseud. aeruginosa (11B)
  MIC: 10 µg/mL (≈ 35.3 µM)
Pseud. aeruginosa; Pseud. aeruginosa (11C)
  MIC: 2 µg/mL (≈ 7.06 µM)
Pseud. aeruginosa; Pseud. aeruginosa (11D)
  MIC: 10 µg/mL (≈ 35.3 µM)
Pseud. aeruginosa; Pseud. aeruginosa (11G)
  MIC: 10 µg/mL (≈ 35.3 µM)
Pseud. aeruginosa; Pseud. aeruginosa (11I)
  MIC: 2 µg/mL (≈ 7.06 µM)
Pseud. aeruginosa; Pseud. aeruginosa (11J)
  MIC: 10 µg/mL (≈ 35.3 µM)
Sal. gallinarum; Sal. gallinarum (04C)
  MIC: 2 µg/mL (≈ 7.06 µM)
Sal. gallinarum; Sal. gallinarum (04D)
  MIC: 0.4 µg/mL (≈ 1.41 µM)
Proteus vulgaris
  MIC: 2 µg/mL (≈ 7.06 µM)
E. coli; E. coli (06-2B)
  MIC: 2 µg/mL (≈ 7.06 µM)
E. coli; E. coli (06-2F)
  MIC: 0.4 µg/mL (≈ 1.41 µM)
E. coli; E. coli (06-2L)
  MIC: 10 µg/mL (≈ 35.3 µM)
E. coli; E. coli (06-2M)
  MIC: < 0.08 µg/mL
E. coli; E. coli (06C)
  MIC: 2 µg/mL (≈ 7.06 µM)
E. coli; E. coli (06I)
  MIC: 10 µg/mL (≈ 35.3 µM)
E. coli; E. coli (06J)
  MIC: 0.4 µg/mL (≈ 1.41 µM)
E. coli; E. coli (06K)
  MIC: 0.4 µg/mL (≈ 1.41 µM)
E. coli; E. coli (06L)
  MIC: 0.4 µg/mL (≈ 1.41 µM)
E. coli; E. coli (06M)
  MIC: 0.4 µg/mL (≈ 1.41 µM)
E. coli; E. coli (06S)
  MIC: 0.4 µg/mL (≈ 1.41 µM)
E. coli; E. coli (06V)
  MIC: 0.4 µg/mL (≈ 1.41 µM)
E. coli; E. coli (06X)
  MIC: 2 µg/mL (≈ 7.06 µM)
E. coli; E.coli (06-2D)
  MIC: 2 µg/mL (≈ 7.06 µM)
Proteus sp.
  MIC: < 0.08 µg/mL
Sal. choleraesuis
  MIC: < 0.08 µg/mL
Strep. pyogenes
  MIC: < 0.08 µg/mL
Ser. marcescens
  MIC: 0.4 µg/mL (≈ 1.41 µM)
Staph. aureus
  MIC: 0.4 µg/mL (≈ 1.41 µM)
Bac. subtilis
  MIC: < 0.08 µg/mL
Sal. typhimurium; Sal. typhimurium (03A)
  MIC: 0.4 µg/mL (≈ 1.41 µM)
Sal. typhimurium; Sal. typhimurium (03C)
  MIC: 0.4 µg/mL (≈ 1.41 µM)
Sal. typhimurium; Sal. typhimurium (03K)
  MIC: < 0.08 µg/mL
Sal. typhi; [1]
  MIC: 2 µg/mL (≈ 7.06 µM)
Sal. typhi; [2]
  MIC: 0.4 µg/mL (≈ 1.41 µM)
Aero. cloacae
  MIC: < 0.08 µg/mL
Shiq. dysenteriae
  MIC: 0.4 µg/mL (≈ 1.41 µM)
Kleb. aerobacter
  MIC: 2 µg/mL (≈ 7.06 µM)
In vivo
  LD50 at 24 h: > 450 mg/kg
In vivo; [3]
  TD50: > 450 mg/kg
In vivo; ED50 Ataxia
  TD50: > 450 mg/kg
In vivo; ED50 Excitation
  TD50: > 450 mg/kg
In vivo; [4]
  TD50: > 450 mg/kg
In vivo; [5]
  TD50: > 450 mg/kg
In vivo; ED50 Irritability
  TD50: > 450 mg/kg
In vivo; [6]
  TD50: > 450 mg/kg

## CCn1cc(C(=O)O)c(=O)c2ccc(C)nc21 [Nalidixic Acid, nalidixic acid]
Pseud. aeruginosa; Pseud. aeruginosa (11B)
  MIC: > 10 µg/mL
Pseud. aeruginosa; Pseud. aeruginosa (11C)
  MIC: > 10 µg/mL
Pseud. aeruginosa; Pseud. aeruginosa (11D)
  MIC: > 10 µg/mL
Pseud. aeruginosa; Pseud. aeruginosa (11G)
  MIC: > 10 µg/mL
Pseud. aeruginosa; Pseud. aeruginosa (11I)
  MIC: > 10 µg/mL
Pseud. aeruginosa; Pseud. aeruginosa (11J)
  MIC: > 10 µg/mL
Sal. gallinarum; Sal. gallinarum (04C)
  MIC: > 10 µg/mL
Sal. gallinarum; Sal. gallinarum (04D)
  MIC: 10 µg/mL (≈ 43.1 µM)
Proteus vulgaris
  MIC: > 10 µg/mL
E. coli; E. coli (06-2B)
  MIC: > 10 µg/mL
E. coli; E. coli (06-2F)
  MIC: 2 µg/mL (≈ 8.61 µM)
E. coli; E. coli (06-2L)
  MIC: > 10 µg/mL
E. coli; E. coli (06-2M)
  MIC: 2 µg/mL (≈ 8.61 µM)
E. coli; E. coli (06C)
  MIC: > 10 µg/mL
E. coli; E. coli (06I)
  MIC: > 10 µg/mL
E. coli; E. coli (06J)
  MIC: 2 µg/mL (≈ 8.61 µM)
E. coli; E. coli (06K)
  MIC: 10 µg/mL (≈ 43.1 µM)
E. coli; E. coli (06L)
  MIC: 10 µg/mL (≈ 43.1 µM)
E. coli; E. coli (06M)
  MIC: 10 µg/mL (≈ 43.1 µM)
E. coli; E. coli (06S)
  MIC: 10 µg/mL (≈ 43.1 µM)
E. coli; E. coli (06V)
  MIC: 2 µg/mL (≈ 8.61 µM)
E. coli; E. coli (06X)
  MIC: 10 µg/mL (≈ 43.1 µM)
E. coli; E.coli (06-2D)
  MIC: 10 µg/mL (≈ 43.1 µM)
Proteus sp.
  MIC: 2 µg/mL (≈ 8.61 µM)
Sal. choleraesuis
  MIC: 2 µg/mL (≈ 8.61 µM)
Strep. pyogenes
  MIC: 10 µg/mL (≈ 43.1 µM)
Ser. marcescens
  MIC: 2 µg/mL (≈ 8.61 µM)
Staph. aureus
  MIC: 2 µg/mL (≈ 8.61 µM)
Bac. subtilis
  MIC: 0.4 µg/mL (≈ 1.72 µM)
Sal. typhimurium; Sal. typhimurium (03A)
  MIC: 2 µg/mL (≈ 8.61 µM)
Sal. typhimurium; Sal. typhimurium (03C)
  MIC: 2 µg/mL (≈ 8.61 µM)
Sal. typhimurium; Sal. typhimurium (03K)
  MIC: 2 µg/mL (≈ 8.61 µM)
Sal. typhi; [1]
  MIC: 10 µg/mL (≈ 43.1 µM)
Sal. typhi; [2]
  MIC: 2 µg/mL (≈ 8.61 µM)
Aero. cloacae
  MIC: 2 µg/mL (≈ 8.61 µM)
Shiq. dysenteriae
  MIC: > 10 µg/mL
Kleb. aerobacter
  MIC: > 10 µg/mL
In vivo
  LD50 at 24 h: > 450 mg/kg
In vivo; [3]
  TD50: 180 mg/kg
In vivo; ED50 Ataxia
  TD50: 150 mg/kg
In vivo; ED50 Excitation
  TD50: > 450 mg/kg
In vivo; [4]
  TD50: > 450 mg/kg
In vivo; [5]
  TD50: 187 mg/kg
In vivo; ED50 Irritability
  TD50: > 450 mg/kg
In vivo; [6]
  TD50: 187 mg/kg

— patent US4216324A, “1-Difluoromethyl-6,7-methylenedioxy-1,4-dihyd ro-4-oxo-3-quinolinecarboxylic acid” (E. I. Du Pont de Nemours and Company, priority 1978, dated 1980)
